According to PMC5740381 (Antimicrobial Agents and Chemotherapy, 2017):
Read-outs that look alike come from different tables or passages of the source.

Key:
Assay type in all cases: cell-based, Hepatitis C virus
HCV genotype 6a replicon = test: Transient replicon assay with engineered substitutions; conditions: for EC50: Hepatitis C virus
Experimental: (§1) Mutagenesis was performed using a Change-IT multiple-mutation site-directed mutagenesis kit (USB, Cleveland, OH) or by cloning a synthesized DNA fragment encoding the amino acid substitution(s). The genotype 1a and 1b replicon shuttle vectors used for the introduction of the substitutions of interest in the NS3, NS5A, or NS5B gene for transient-transfection assays have been described previously ([28], [33]). The replicon shuttle vectors used for the introduction of substitutions in NS3 genes from other genotypes were similar to the stable replicon cell line constructs described above, except for the absence of the neo gene. After mutagenesis, the plasmids were linearized and RNA was transcribed and then used to transfect Huh-7 cells. Inhibition of HCV replication by the HCV inhibitors was measured by luciferase assay, as described above. Replication efficiency was calculated as a percentage of wild-type replication, as described previously ([28]).

HCV genotype 4a replicon = test: as above; conditions: for EC50: Hepatitis C virus
Experimental: as §1

HCV genotype 5a replicon = test: as above
Experimental: as §1

HCV genotype 1b replicon = test: as above
Experimental: as §1

HCV genotype 3a replicon = test: as above; conditions: for EC50: Hepatitis C virus
Experimental: as §1

HCV genotype 2a replicon = test: as above
Experimental: as §1

HCV genotype 4d replicon = test: as above; conditions: for EC50: Hepatitis C virus, 96 h
Experimental: as §1

HCV genotype 1a replicon = test: as above
Experimental: as §1

HCV genotype 2b replicon = test: as above; conditions: for EC50: Hepatitis C virus
Experimental: as §1

[1] = system: HCV subgenomic stable replicon GT4a; test: Stable HCV replicon luciferase assay in Huh-7 cells; conditions: Hepatitis C virus, Huh-7, 0% human plasma, read-out: Mean EC50 ± SD
Text: (§2) . Five of these nine cell lines have been described previously, including those transfected with genotypes 1a H77, 1b Con1, 3a, 4a, and 6a ([28]). The other four cell lines were established by transfecting cells with a nonchimeric genotype 2a JFH-1 replicon (GenBank accession number AB047639), two genotype 2a JFH-1 chimeric replicons containing either a genotype 2b NS3 protease domain (N-terminal 251 amino acids) or a sequence encoding full-length NS3 through the first 39 amino acids of NS5B from genotype 5a (strain SA13), and one chimeric replicon with a genotype 1b Con1 backbone containing full-length NS3 and NS4A sequences from genotype 6e. The genotype 2b and 6e NS3 sequences were each synthetically constructed based on a consensus sequence derived from the alignment of 15 genotype 2b and 4 genotype 6e sequences, respectively. All replicon constructs were bicistronic subgenomic replicons similar to those described by Bartenschlager and coworkers, and the replicon cell lines were generated by introducing these constructs into cells of an Huh-7 human hepatoma-derived cell line ([50]). The inhibitory effect of the PIs on HCV replication in replicon cells was determined in Dulbecco's modified Eagle medium containing 5% fetal bovine serum with or without 40% human plasma (Bioreclamation, Westbury, NY). The EC50s were determined using nonlinear regression curve fitting as described previously ([33]).

[2] = system: HCV subgenomic stable replicon GT6a; test: as above; conditions: Hepatitis C virus, Huh-7, 0% human plasma, read-out: Mean EC50 ± SD
Text: as §2

[3] = system: HCV subgenomic stable replicon GT3a; test: microbe, parasite or virus in culture; conditions: Hepatitis C virus, Huh-7, 0% human plasma, read-out: Mean EC50 ± SD
Text: (§3) Five of these nine cell lines have been described previously, including those transfected with genotypes 1a H77, 1b Con1, 3a, 4a, and 6a ([28]). […] The genotype 2b and 6e NS3 sequences were each synthetically constructed based on a consensus sequence derived from the alignment of 15 genotype 2b and 4 genotype 6e sequences, respectively. All replicon constructs were bicistronic subgenomic replicons similar to those described by Bartenschlager and coworkers, and the replicon cell lines were generated by introducing these constructs into cells of an Huh-7 human hepatoma-derived cell line ([50]). The inhibitory effect of the PIs on HCV replication in replicon cells was determined in Dulbecco's modified Eagle medium containing 5% fetal bovine serum with or without 40% human plasma (Bioreclamation, Westbury, NY). The EC50s were determined using nonlinear regression curve fitting as described previously ([33]).

[4] = system: HCV subgenomic stable replicon GT6e; test: microbe, parasite or virus in culture; conditions: Hepatitis C virus, Huh-7, 0% human plasma, read-out: Mean EC50 ± SD
Text: as §3

Cc1cnc(C(=O)N[C@H]2CCCCC/C=C\[C@@H]3C[C@@]3(C(=O)NS(=O)(=O)C3CC3)NC(=O)[C@@H]3C[C@@H](Oc4nc5ccccc5c5ccccc45)CN3C2=O)cn1 [Paritaprevir]
Fold change (HCV genotype 6a replicon; 6a NS3 D168A vs wild-type replicon): 1,347 fold
Fold change (HCV genotype 6a replicon; 6a NS3 D168H vs wild-type replicon): 2,490 fold
Fold change (HCV genotype 6a replicon; 6a NS3 D168V vs wild-type replicon): 3,336 fold
EC50 (HCV genotype 6a replicon; read-out: Mean EC50 ± SD, 6a NS3 D168A): 162 ± 80 nM
EC50 (HCV genotype 6a replicon; read-out: Mean EC50 ± SD, 6a NS3 D168H): 299 ± 87 nM
EC50 (HCV genotype 6a replicon; read-out: Mean EC50 ± SD, 6a NS3 D168V): 400 ± 139 nM
EC50 (HCV genotype 6a replicon; read-out: Mean EC50 ± SD, 6a wild type, transient transfection): 0.12 ± 0.04 nM
Fold change (HCV genotype 4a replicon; 4a NS3 A156T vs wild-type replicon): 40 fold
Fold change (HCV genotype 4a replicon; 4a NS3 A156V vs wild-type replicon): 155 fold
Fold change (HCV genotype 4a replicon; 4a NS3 D168H vs wild-type replicon): 252 fold
Fold change (HCV genotype 4a replicon; 4a NS3 D168V vs wild-type replicon): 323 fold
Fold change (HCV genotype 4a replicon; 4a NS3 R155C vs wild-type replicon): 59 fold
EC50 (HCV genotype 4a replicon; read-out: Mean EC50 ± SD, 4a NS3 A156T): 1.9 ± 0.25 nM
EC50 (HCV genotype 4a replicon; read-out: Mean EC50 ± SD, 4a NS3 A156V): 7.4 ± 1.6 nM
EC50 (HCV genotype 4a replicon; read-out: Mean EC50 ± SD, 4a NS3 D168H): 12 ± 3 nM
EC50 (HCV genotype 4a replicon; read-out: Mean EC50 ± SD, 4a NS3 D168V): 16 ± 1.9 nM
EC50 (HCV genotype 4a replicon; read-out: Mean EC50 ± SD, 4a NS3 R155C): 2.8 ± 0.25 nM
EC50 (HCV genotype 4a replicon; read-out: Mean EC50 ± SD, 4a wild type, transient transfection): 0.048 ± 0.01 nM
Fold change (HCV genotype 5a replicon; 5a NS3 D168E vs wild-type replicon): 23 fold
Fold change (HCV genotype 5a replicon; 5a NS3 D168H vs wild-type replicon): 558 fold
Fold change (HCV genotype 1b replicon; 1b NS3 A156T vs wild-type replicon): 7.4 fold
Fold change (HCV genotype 1b replicon; 1b NS3 A156V vs wild-type replicon): 21 fold
Fold change (HCV genotype 1b replicon; 1b NS3 D168A vs wild-type replicon): 27 fold
Fold change (HCV genotype 1b replicon; 1b NS3 D168E vs wild-type replicon): 4.4 fold
Fold change (HCV genotype 1b replicon; 1b NS3 D168V vs wild-type replicon): 159 fold
Fold change (HCV genotype 1b replicon; 1b NS3 R155K vs wild-type replicon): 40 fold
Fold change (HCV genotype 1b replicon; 1b NS3 T54A vs wild-type replicon): 0.8 fold
Fold change (HCV genotype 1b replicon; 1b NS3 V55A vs wild-type replicon): 0.6 fold
Fold change (HCV genotype 1b replicon; 1b NS3 V170A vs wild-type replicon): 0.8 fold
Fold change (HCV genotype 3a replicon; 3a NS3 A156G vs wild-type replicon): 57 fold
Fold change (HCV genotype 3a replicon; 3a NS3 Q168R vs wild-type replicon): 29 fold
Fold change (HCV genotype 3a replicon; 3a NS3 R155K vs wild-type replicon): 5.2 fold
EC50 (HCV genotype 3a replicon; read-out: Mean EC50 ± SD, 3a NS3 A156G): 1770 nM
EC50 (HCV genotype 3a replicon; read-out: Mean EC50 ± SD, 3a NS3 Q168R): 912 ± 221 nM
EC50 (HCV genotype 3a replicon; read-out: Mean EC50 ± SD, 3a NS3 R155K): 161 ± 20 nM
EC50 (HCV genotype 3a replicon; read-out: Mean EC50 ± SD, 3a wild type, transient transfection): 31 ± 7 nM
Fold change (HCV genotype 2a replicon; 2a NS3 A156T vs wild-type replicon): 1.7 fold
Fold change (HCV genotype 2a replicon; 2a NS3 A156V vs wild-type replicon): 2.2 fold
Fold change (HCV genotype 2a replicon; 2a NS3 D168A vs wild-type replicon): 18 fold
Fold change (HCV genotype 2a replicon; 2a NS3 D168E vs wild-type replicon): 5.3 fold
Fold change (HCV genotype 2a replicon; 2a NS3 D168V vs wild-type replicon): 13 fold
Fold change (HCV genotype 4d replicon; 4d NS3 D168V vs wild-type replicon): 312 fold
EC50 (HCV genotype 4d replicon; read-out: Mean EC50 ± SD, 4d NS3 D168V): 4.7 ± 0.91 nM
EC50 (HCV genotype 4d replicon; read-out: Mean EC50 ± SD, 4d wild type, transient transfection): 0.015 ± 0.001 nM
Fold change (HCV genotype 1a replicon; 1a NS3 A156T vs wild-type replicon): 17 fold
Fold change (HCV genotype 1a replicon; 1a NS3 D168A vs wild-type replicon): 50 fold
Fold change (HCV genotype 1a replicon; 1a NS3 D168E vs wild-type replicon): 14 fold
Fold change (HCV genotype 1a replicon; 1a NS3 D168V vs wild-type replicon): 96 fold
Fold change (HCV genotype 1a replicon; 1a NS3 F43L vs wild-type replicon): 20 fold
Fold change (HCV genotype 1a replicon; 1a NS3 Q80K vs wild-type replicon): 2.8 fold
Fold change (HCV genotype 1a replicon; 1a NS3 R155K vs wild-type replicon): 37 fold
Fold change (HCV genotype 1a replicon; 1a NS3 T54S vs wild-type replicon): 0.4 fold
Fold change (HCV genotype 1a replicon; 1a NS3 V36M vs wild-type replicon): 2.1 fold
Fold change (HCV genotype 1a replicon; 1a NS3 V55I vs wild-type replicon): 1.0 fold
Fold change (HCV genotype 1a replicon; 1a NS3 Y56H vs wild-type replicon): 2.9 fold
Fold change (HCV genotype 2b replicon; 2b NS3 A156T vs wild-type replicon): 3.0 fold
Fold change (HCV genotype 2b replicon; 2b NS3 A156V vs wild-type replicon): 5.0 fold
Fold change (HCV genotype 2b replicon; 2b NS3 D168A vs wild-type replicon): 11 fold
Fold change (HCV genotype 2b replicon; 2b NS3 D168E vs wild-type replicon): 2.2 fold
Fold change (HCV genotype 2b replicon; 2b NS3 D168V vs wild-type replicon): 9.4 fold
EC50 (HCV genotype 2b replicon; read-out: Mean EC50 ± SD, 2b NS3 A156T): 338 ± 86 nM
EC50 (HCV genotype 2b replicon; read-out: Mean EC50 ± SD, 2b NS3 A156V): 573 ± 204 nM
EC50 (HCV genotype 2b replicon; read-out: Mean EC50 ± SD, 2b NS3 D168A): 1310 nM
EC50 (HCV genotype 2b replicon; read-out: Mean EC50 ± SD, 2b NS3 D168E): 256 ± 58 nM
EC50 (HCV genotype 2b replicon; read-out: Mean EC50 ± SD, 2b NS3 D168V): 1070 nM
EC50 (HCV genotype 2b replicon; read-out: Mean EC50 ± SD, 2b wild type, transient transfection): 114 ± 24 nM
EC50 [1]: 0.09 ± 0.03 nM
EC50 [2]: 0.69 ± 0.09 nM
EC50 [3]: 19 ± 5.2 nM
EC50 [4]: 0.44 ± 0.17 nM
